{
  "source": "patent EP0549264A1",
  "about": "“Purified para-nitrobenzyl esterase from bacillus” (OKLAHOMA STATE UNIVERSITY, priority 1991, dated 1993)",
  "data": [
    {"target": "T1, PNB esterase (Bacillus subtilis, UniProt P37967)", "T1 construct": "A culture of Bacillus subtilis NRRL B-8079 was harvested and frozen by conventional methods; made in house; host or cells: Bacillus subtilis NRRL B-8079 (natural producer; enzyme purified from cell-free extract)", "T1 sequence (P37967 1-489)": "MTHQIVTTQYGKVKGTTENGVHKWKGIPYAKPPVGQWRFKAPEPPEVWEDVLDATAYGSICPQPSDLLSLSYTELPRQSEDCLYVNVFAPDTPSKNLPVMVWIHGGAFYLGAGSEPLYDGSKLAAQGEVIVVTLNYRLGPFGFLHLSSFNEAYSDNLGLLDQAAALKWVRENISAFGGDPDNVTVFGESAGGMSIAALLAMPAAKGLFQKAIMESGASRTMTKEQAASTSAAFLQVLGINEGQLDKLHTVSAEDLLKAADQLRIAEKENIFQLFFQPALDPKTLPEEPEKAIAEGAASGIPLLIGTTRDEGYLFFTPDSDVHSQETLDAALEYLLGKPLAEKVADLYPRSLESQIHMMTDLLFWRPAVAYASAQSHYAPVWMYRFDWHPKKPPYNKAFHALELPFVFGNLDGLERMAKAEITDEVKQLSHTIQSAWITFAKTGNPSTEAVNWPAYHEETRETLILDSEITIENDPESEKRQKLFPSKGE", "test": "PNB esterase activity assay (HPLC, method of Example 1D), effect of inhibitors", "type": "biochemical", "conditions": "not given", "units": {"inhibition at 1000 µM": "%", "Inhibition (%)": "%"}, "values": [
      {"compound": "O=C(O)c1cc(SSc2ccc([N+](=O)[O-])c(C(=O)O)c2)ccc1[N+](=O)[O-]", "note": "[5,5'-Dithiobis(2-nitrobenzoic acid)]", "inhibition at 1000 µM": 69},
      {"compound": "O=S(=O)(F)Cc1ccccc1", "note": "[Phenylmethylsulfonylfluoride]", "PNB esterase activity inhibited (in words)": "strongly inhibited"},
      {"compound": "Diethyl p-nitrophenylphosphate", "Inhibition (%)": 100, "PNB esterase activity inhibited (in words)": "strongly inhibited"},
      {"compound": "O=C(O)CN(CCN(CC(=O)O)CC(=O)O)CC(=O)O", "note": "[EDTA, ethylenediamine tetraacetic acid]", "inhibition at 1000 µM": 0},
      {"compound": "O=CC(=O)c1ccccc1", "note": "[Phenylglyoxal]", "PNB esterase activity inhibited (in words)": "moderately inhibited", "inhibition at 1000 µM": 91},
      {"compound": "C(=NC1CCCCC1)=NC1CCCCC1", "note": "[Dicyclohexyl carbodiimide]", "PNB esterase activity inhibited (in words)": "moderately inhibited", "inhibition at 1000 µM": 78},
      {"compound": "O=S(=O)([O-])[O-].[Fe+2]", "note": "[FeSO4]", "Inhibition (%)": 100},
      {"compound": "[Cl][Hg][Cl]", "note": "[HgCl₂]", "Inhibition (%)": 100, "PNB esterase activity inhibited (in words)": "moderately inhibited"},
      {"compound": "CC(=O)[O-].CC(=O)[O-].[Zn+2]", "note": "[Zn(OCOCH₃)₂]", "Inhibition (%)": 97},
      {"compound": "O=C(NC(Cc1ccccc1)C(=O)Nc1ccc2ccccc2c1)c1ccccc1", "note": "(centres unmarked) [N-benzoyl phenylalanine naptylamide]", "Inhibition (%)": 66, "PNB esterase activity inhibited (in words)": "moderately inhibited"},
      {"compound": "CCOC(=O)OC(=O)OCC", "note": "[Diethylpyrocarbonate]", "PNB esterase activity inhibited (in words)": "strongly inhibited", "inhibition at 1000 µM": 100},
      {"compound": "OCCS", "note": "[2-Mercaptoethanol]", "inhibition at 1000 µM": 0}
    ]},
    {"target": "T1, PNB esterase", "test": "PNB esterase activity assay (HPLC, method of Example 1D), effect of inhibitors", "type": "biochemical", "conditions": "summary in words of Table 2; compounds at 1 mM", "values": [
      {"compound": "O=C(O)c1cc(SSc2ccc([N+](=O)[O-])c(C(=O)O)c2)ccc1[N+](=O)[O-]", "note": "[5,5'-Dithiobis(2-nitrobenzoic acid)]", "PNB esterase activity inhibited (in words)": "moderately inhibited"}
    ]},
    {"target": "T1, PNB esterase", "test": "Substrate specificity comparison of native and recombinant PNB esterase", "type": "biochemical", "conditions": "both native enzyme and enzyme from recombinant Escherichia coli", "description": "A 1 ml reaction mixture containing 5 µmoles Bis-Tris-Propane-HCl, pH 6.5, 0.5 µmole substrate (loracarbef PNB ester, or cefaclor PNB ester), and appropriate amounts of enzyme solution was incubated at 37°C in a constant-temperature shaker for 30 minutes The reaction was stopped by the addition of an equal volume of acetonitrile. The mixture was then centrifuged to remove the protein and the supernatant solution was analyzed by high performance liquid chromatography (HPLC) for product formation and substrate disappearance. The HPLC was performed in a C-18 reverse-phase column (Nova-Pak C₁₈ radial-pak cartridge (8 X 100 mm), Millipore Bedford, MA) with a linear gradient formed by Buffer A containing 80% of 1 mM Triethylamine-HCl, pH 2.5 and 20% methanol and Buffer B containing methanol, at a flow rate of 1 ml/minutes\nThe HPLC system used was a Varian HPLC system including a Vista 5560 unit (Varian Associates, Sugar Land TX) and a model 230-401 auto-sampling injector (Gilson Medical Electronics, Middleton, WI.). The PNB esterase activity was determined by monitoring product formation at 254 nm.\nThe PNB esterase purified from recombinant Escherichia coli was compared to the native enzyme by molecular weight, Western blot analysis, and substrate specificity.\nMeasurements of molecular weight gave values of 54,000 for enzyme from the two sources, and identical precipitin bands were obtained when the two enzyme preparations were tested using antibody prepared against native purified esterase. Both enzymes hydrolyzed cefaclor PNB ester, cefaclor nucleus PNB ester, loracarbef PNB ester, and loracarbef nucleus PNB ester. The native PNB esterase and the corresponding PNB esterase produced in recombinant E. coli strains appear functionally identical and structually the same at macroscale.", "values": [
      {"compound": "N[C@@H](C(=O)N[C@@H]1C(=O)N2C(C(=O)OCc3ccc([N+](=O)[O-])cc3)=C(Cl)CS[C@H]12)c1ccccc1", "note": "[cefaclor PNB ester]", "hydrolysis by PNB esterase": "hydrolyzed"},
      {"compound": "N[C@@H]1C(=O)N2C(C(=O)OCc3ccc([N+](=O)[O-])cc3)=C(Cl)CS[C@H]12", "note": "[cefaclor nucleus PNB ester]", "hydrolysis by PNB esterase": "hydrolyzed"},
      {"compound": "N[C@@H](C(=O)N[C@@H]1C(=O)N2C(C(=O)OCc3ccc([N+](=O)[O-])cc3)=C(Cl)CC[C@H]12)c1ccccc1", "note": "[loracarbef PNB ester]", "hydrolysis by PNB esterase": "hydrolyzed"},
      {"compound": "N[C@@H]1C(=O)N2C(C(=O)OCc3ccc([N+](=O)[O-])cc3)=C(Cl)CC[C@H]12", "note": "[loracarbef nucleus PNB ester]", "hydrolysis by PNB esterase": "hydrolyzed"}
    ]}
  ]
}
